Assay results published in paper PMC6394990, “Detailed characterization of the solution kinetics and thermodynamics of biotin, biocytin and HABA binding to avidin and streptavidin” (PLoS ONE, 2019).
“Also recorded” adds a separate entry of the source.

Experiments:
avidin (AV) = molecular target: T1, avidin (AV) (Gallus gallus, UniProt P02701); assay: Dissociation (displacement/replacement) of dye-labeled biotin complexes by unlabeled B7; format: binding; conditions: AB1; probe 20 nM, AV 260 nM; unlabeled B7 2,000 nM; 20°C
T1 construct: purchased Calbiochem (La Jolla, CA)
T1 sequence (P02701 25-152): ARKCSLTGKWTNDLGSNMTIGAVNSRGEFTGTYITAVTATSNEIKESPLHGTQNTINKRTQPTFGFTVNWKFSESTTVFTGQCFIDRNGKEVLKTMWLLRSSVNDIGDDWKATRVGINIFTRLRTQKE
Protocol: Biotin dissociation was determined using labelled biotin (BcO and BFl) displaced by unlabeled biotin using minimally occupied and fully occupied binding sites. In the minimally occupied measurements, SAV is prepared with less than one site on average occupied by labelled biotin (AB1), using 800 nM SAV and 40 nM of BcO or BFl. For saturated SAV-labelled biotin (AB4) complexes, equimolar binding sites and labelled ligand were prepared, 40 nM SAV and 40 nM of BcO or BFl. The AB1 complexes were challenged in displacement experiments with several concentrations of unlabeled B7 (1500 nM, 1750 nM, 2000 nM and 2500 nM) at 20 ± 0.1°C. […]
The rss measurements were collected using the Giblin-Parkhurst modification of the Wampler-Desa method as described previously. The fluorescence signal was detected in a model A-1010 Alphascan fluorimeter (Photon Technologies, Inc., Birmingham, NJ) equipped with an R928 PMT (Hamamatsu, Bridgewater, NJ). […] The fluorimeter G factor was determined using a film polarizer and analyzer with an excitation at 488 nm provided by a xenon arc lamp (model A1010, Photon Technologies Inc, Princeton, NJ). The dissociation reactions of dye-labeled B7 and protein complexes were monitored by fluorescence changes and were also collected in the fluorimeter described above. […]

[1] = Steady-state anisotropy (rss), unbound probe; format: physicochemical
Protocol: (§1) The lifetimes (τ), steady state anisotropies (rss), time-resolved anisotropies (rt) and quantum yields (QY) of the complexes (at 20 ± 0.1°C and pH 8) were collected with a dye-labeled B7 probe concentration of 20–40 nM and 1040–2080 nM of either protein (AV or SAV) to ensure that only one binding site in the tetramer was filled with a ligand (AB1 filling model).
The rss measurements were collected using the Giblin-Parkhurst modification of the Wampler-Desa method as described previously. The fluorescence signal was detected in a model A-1010 Alphascan fluorimeter (Photon Technologies, Inc., Birmingham, NJ) equipped with an R928 PMT (Hamamatsu, Bridgewater, NJ). The excitation was provided by an Ar^+ ion laser (Coherent Innova 70–4 Argon, Santa Clara, CA) at 488 nm and 5–10 mW of power incident on the sample. […] The fluorimeter G factor was determined using a film polarizer and analyzer with an excitation at 488 nm provided by a xenon arc lamp (model A1010, Photon Technologies Inc, Princeton, NJ). The dissociation reactions of dye-labeled B7 and protein complexes were monitored by fluorescence changes and were also collected in the fluorimeter described above.

streptavidin (SAV) [2] = molecular target: T2, streptavidin (SAV) (Streptomyces avidinii, UniProt P22629); assay: Steady-state anisotropy (rss), SAV complex; format: physicochemical; conditions: for Steady State Anisotropy rss: SAV complex (AB1), 20°C; for SAV-increment (%): increase of rss against unbound; for rss, + SAV: steady-state anisotropy
T2 construct: purchased Sigma Aldrich (St. Louis, MO)
T2 sequence (P22629 25-183): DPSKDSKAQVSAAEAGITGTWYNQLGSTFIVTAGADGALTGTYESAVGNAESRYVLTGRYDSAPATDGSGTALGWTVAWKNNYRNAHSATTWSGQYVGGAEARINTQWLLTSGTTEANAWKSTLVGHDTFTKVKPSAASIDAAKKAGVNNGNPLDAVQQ
Protocol: as §1
The rss measurements were collected using the Giblin-Parkhurst modification of the Wampler-Desa method as described previously. The fluorescence signal was detected in a model A-1010 Alphascan fluorimeter (Photon Technologies, Inc., Birmingham, NJ) equipped with an R928 PMT (Hamamatsu, Bridgewater, NJ). The excitation was provided by an Ar^+ ion laser (Coherent Innova 70–4 Argon, Santa Clara, CA) at 488 nm and 5–10 mW of power incident on the sample. A photoelastic modulator (PEM-80; HINDS International, Inc., Portland, OR) was placed between the laser source and the sample compartment with a retardation level of 1.22π, and the PEM stress axis orientated 45° with respect to the E vector of the laser beam. Two signals were acquired with the PEM alternating between “on” and “off” positions for 10 seconds and the data fitted to a least squared straight line to minimize noise. A minimum of six of these independent measurements were averaged to acquire the rss values. The fluorimeter G factor was determined using a film polarizer and analyzer with an excitation at 488 nm provided by a xenon arc lamp (model A1010, Photon Technologies Inc, Princeton, NJ). The dissociation reactions of dye-labeled B7 and protein complexes were monitored by fluorescence changes and were also collected in the fluorimeter described above.

streptavidin (SAV) [3] = molecular target: T2, streptavidin (SAV); assay: Time-resolved anisotropy, cone angle, SAV complex; format: physicochemical; conditions: complex with SAV
Protocol: as §1
The lifetimes were collected in a FluoTime100 fluorescence spectrometer (PicoQuant, GmbH, Berlin, Germany) with the excitation light source provided by a picosecond pulsed diode laser (PicoQuant, GmbH, Berlin, Germany) at 470 nm and 20 MHz. […] The fluorescence decays were fit by a nonlinear least-squares minimization based on the Marquardt algorithm embedded in the Fluofit software (PicoQuant GmbH). […] The PicoQuant G factor was calculated according to: G = ∫HV(t)dt/∫HH(t)dt, where HV(t) and HH(t) were the decays collected with the emission polarizer selecting vertical and horizontal E-vector passing orientations, respectively, and the excitation polarizer set at horizontally position. […]
In a simple model, the transition moment is assumed to wobble within a cone of semi-apical angle Ω [59], where the cone axis is normal to the surface of a sphere that corresponds to the macromolecule. The angle Ω is calculated from Eq 14.

Row | Structure (SMILES) | koff displacement / koff replacement of AV complexes (avidin (AV)) | rss, Unbound [1] | Steady State Anisotropy rss (streptavidin (SAV) [2]) | SAV-increment (%) (streptavidin (SAV) [2]) | rss, + SAV (streptavidin (SAV) [2]) | W (streptavidin (SAV) [3])
1 | O=C(CCCC[C@@H]1SC[C@@H]2NC(=O)N[C@@H]21)NCCNC(=O)c1ccc(-c2c3ccc(=O)cc-3oc3cc(O)ccc23)c(C(=O)O)c1 [BFl, Biotin-4-fluorescein] | could not detect neither displacement nor replacement; also recorded: could not be detected | 0.021 | 0.171 ± 0.008 | 714.3 | 0.171 | 51
2 | NC(CCCCNC(=O)CCCC[C@@H]1SC[C@@H]2NC(=O)N[C@@H]21)C(=O)NCCCCCNC(=O)c1ccc(-c2c3cc(F)c(=O)cc-3oc3cc(O)c(F)cc23)c(C(=O)O)c1 (stereo partly drawn) [BcO, Oregon green 488 Biocytin] | could not detect neither displacement nor replacement; also recorded: could not be detected | 0.023 | 0.053 ± 0.005 | 130.4 | 0.053 | 50
